Where “and” joins values, the source holds several entries; their conditions need not be identical. Equal values may be shown once. Ends that are not written are not given here. * marks the point of attachment. Stearoyl = CCCCCCCCCCCCCCCCCC(=O)*
Legend:
Format in all cases: in vivo
[1] = Body weight of apoE knockout mice on high-fat diet
Description: (§1) Male apoE knockout mice (C57BL/6J) at age of 10 weeks were purchased from GemPharmatech, Nanjing, Jiangsu, China. The mice were fed with low fat diet [SPF growth and reproduction feed for rats and mice: 12.95% fat (wt/wt), 24.02% protein (wt/wt)] from Beijing KeaoXieli Feed Co. Ltd., Beijing, China in a pathogen-free facility for two weeks, and then divided into the following three groups (8 mice each group): (a) the control group was fed low fat diet, referred to as Chow; (b) the high-fat group was fed high-fat diet (HFD) [21% fat (wt/wt), 0.15% (wt/wt) cholesterol, 20% protein (wt/wt), Research Diets, New Brunswick, NJ, D12079B], referred to as the HFD; (c) the treatment group was fed high-fat diet plus the injection through tail vein with polypeptide 21H21 (50 μg/200μL 1× PBS) once every four days, referred to as the HFD+21H21. The total injection was 10 times. One day after the last injection, the mice were anesthetized and euthanized in carbon dioxide, and then blood, liver and aorta were collected. During the period of the experiment, each group of mice was weighed. All animal experiments were carried out in accordance with the animal management guidelines of the People's Republic of China.

apoE knockout mice [2] = assay: Oil Red O staining of liver cryostat sections, area of neutral lipids; conditions: HFD+21H21 vs HFD, 50 μg tail vein once every four days, 10 injections, p value=0.0004
Description: as §1
Liver tissue collected in Experimental Example 1 was embedded in OCT compound (Sakura Tissue-Tek) and then stored at −80° C. […]

apoE knockout mice [3] = assay: Oil Red O staining of aortic root cryostat sections, area of neutral lipids; conditions: HFD+21H21 vs HFD, 50 μg tail vein once every four days, 10 injections
Description: as §1
The upper half of the heart together with the aortic root tissue collected in Experimental Example 1 was embedded in OCT compound (Sakura Tissue-Tek) and stored at −80° C. […]

apoE knockout mice [4] = assay: Oil Red O staining of full-length aorta, area of neutral lipids; conditions: HFD+21H21 vs HFD, 50 μg tail vein once every four days, 10 injections, p value=4.40108E-05
Description: as §1
Aorta separation in Experimental Example 1 was carried out as Tangirala R K, et al. (Circulation. 1999; 100: 1816-1822). […]

[5] = Body weight of LDLR-deficient mice on high-fat diet
Description: (§2) Male LDLR-deficient mice (C57BL/6-Ldlrem1Cd82/Nju) at age of 11 weeks were purchased fromGemPharmatech, Nanjing, Jiangsu, China. The mice were fed with low fat diet [SPF growth and reproduction feed for rats and mice: 12.95% fat (wt/wt), 24.02% protein (wt/wt)] from Beijing KeaoXieli Feed Co. Ltd., Beijing, China in a pathogen-free facility for two weeks, and then divided into the following three groups (8 mice each group): (a) the control group was fed low fat diet, referred to as Chow; (b) the high-fat group was fed high-fat diet (HFD) [21% fat (wt/wt), 0.15% (wt/wt) cholesterol, 20% protein (wt/wt), Research Diets, New Brunswick, NJ, D12079B], referred to as the HFD; (c) the treatment group was fed high-fat diet plus the injection through tail vein with polypeptide 21H21(50μg/200μL lx PBS) once every three days, referred to as the HFD+21H21. The total injection was 10 times. One day after the last injection, the mice were anesthetized and euthanized in carbon dioxide, and then blood, liver and aorta werecollected. During the period of the experiment, each group of mice was weighed. All animal experiments were carried out in accordance with the animal management guidelines of the People's Republic of China.

LDLR-deficient mice = assay: Oil Red O staining of full-length aorta, area of neutral lipids; conditions: HFD+21H21 vs HFD, 50 μg tail vein once every three days, 10 injections
Description: as §2
Aorta separation in Experimental Example 4 was carried out as Tangirala RK, et al. (Circulation. 1999; 100: 1816-1822). […]

21H21: Stearic acid conjugated to the N-terminus of polypeptide SEQ ID NO: 3 (FAYLQDVVEQAIIRVLTGTEK) (Stearoyl-FAYLQDVVEQAIIRVLTGTEK)
Effect on weight gain by high-fat diet ([1]; 50 μg per mouse i.v. once every four days): able to offset weight gain | Percentage decrease of body weight (HFD + 21H21 vs HFD) ([1]; Day 88): 12.82% | Average body weight per mouse ([1]; Day 88, HFD + 21H21 50 μg tail vein once every four days): 24.38 g | Percentage decrease of body weight (HFD + 21H21 vs HFD) ([1]; Day 97): 14.46% | Average body weight per mouse ([1]; Day 97, HFD + 21H21 50 μg tail vein once every four days): 24.83 g | Percentage decrease of body weight (HFD + 21H21 vs HFD) ([1]; Day 105): 15.79% | Average body weight per mouse ([1]; Day 105, HFD + 21H21 50 μg tail vein once every four days): 25.21 g | Percentage decrease of body weight (HFD + 21H21 vs HFD) ([1]; Day 110): 13.82% | Average body weight per mouse ([1]; Day 110, HFD + 21H21 50 μg tail vein once every four days): 25.61 g | Percentage decrease of body weight (HFD + 21H21 vs HFD) ([1]; Day 119): 12.24% | Average body weight per mouse ([1]; Day 119, HFD + 21H21 50 μg tail vein once every four days): 26.63 g | Percentage decrease of body weight (HFD + 21H21 vs HFD) ([1]; Day 123): 15.04% | Average body weight per mouse ([1]; Day 123, HFD + 21H21 50 μg tail vein once every four days): 26.76 g | Prevention of accumulation of neutral lipids in liver tissue caused by high-fat diet (apoE knockout mice [2]): 53% | Prevention of accumulation of neutral lipids at the aortic root caused by high-fat diet (apoE knockout mice [3]): 35% | Prevention of atherosclerotic lesion of full-length aorta (apoE knockout mice [4]): 48% | Percentage of weight gain during experiment ([5]; HFD + 21H21 50 μg tail vein once every three days): 10.02% | Average body weight after experiment ([5]; HFD + 21H21 50 μg tail vein once every three days, 10 injections): 29.2 ± 0.02 g | Average body weight before experiment ([5]; HFD + 21H21 group (n = 8), baseline): 26.54 ± 0.02 g | Percentage of weight gain offset by 21H21 ([5]; HFD + 21H21 vs HFD): 29% and 29.17% | Prevention of atherosclerotic lesion of full-length aorta (LDLR-deficient mice): 94%
